Experimental findings from PMC6406907, “A H2AX–CARP-1 Interaction Regulates Apoptosis Signaling Following DNA Damage” (Cancers, 2019) are described below.

This assay has as its system CARP-1 interaction with γH2AX. The experiment in a line: Co-immunoprecipitation of myc-His-CARP-1 with γH2AX. The format is cell-based, human. The conditions noted are these: for interaction of wild-type CARP-1 with γH2AX: MDA-MB-468 cells expressing myc-His-tagged CARP-1 (WT), IP/WB; for interaction of CARP-1 (Δ600–650) with γH2AX: in-frame deletion of CARP-1 amino acids 600–650, IP/WB. As for the experimental part:
Logarithmically growing cells were either untreated or treated with different agents for various time periods. The cells were lysed to prepare protein extracts. IP was carried out by incubating approximately 1 mg of the protein lysate with appropriate antibodies. The immunoprecipitates were then analyzed by SDS-PAGE, followed by WB with respective, interacting protein. For Gst-pulldown, Gst-H2AX or various His-TAT-HA-tagged CARP-1 peptides were generated in Escherichia coli (E. coli) BL21 cells essentially as described by us previously. Briefly, the competent E. coli BL-21 (DE3) pLysS cells were transformed separately with various recombinant pGEX-4T-1 or pTAT-HA constructs. The transformed cells were then subjected to selection by combined presence of ampicillin and chloramphenicol; various isolates for each transformation were obtained and bacterial lysates were characterized for expression of fusion peptides. Cells from each isolate were grown in 4 mL of LB medium containing ampicillin only until the optical density (OD)600 reached 0.4–0.8. Expression of fusion peptides was induced over 2–4 h incubation periods after Isopropyl β-D-1-thiogalactopyranoside (IPTG) addition. The cells were harvested, and pellets were stored at −80 °C overnight. The cell pellets were then lysed in 100–400 μL of bacterial protein extraction reagent (BPER) buffer (Thermo Scientific, Waltham, MA, USA, Cat# 78243) containing 2 μL/mL of 10 units/μL DNAse I (Boehringer Mannheim, Fremont, CA, USA, Cat # 776–785), and supernatant checked for expression of respective fusion peptides by WB. Following confirmation of expression, 5–20 μL of lysate expressing Gst fusion protein was first incubated with 20 μL of precleared glutathione sepharose in a final volume of 100 μL at 4 °C for 2 h with constant rotation. The sepharose beads were spun at 800× g for 2 min, and the pellet was washed 2–4 times with 100–200 μL of RIPA buffer (20 mM Tris-HCl (pH 7.5), 150 mM NaCl, 1 mM Na2EDTA, 1 mM EGTA, 1% NP-40, 1% sodium deoxycholate, 2.5 mM sodium pyrophosphate, 1 mM β-glycerophosphate, 1 mM Na3VO4, 1 µg/mL leupeptin) with 0.5 M NaCl. The beads were spun again as above, and mixed with 5–20 μL of E. coli lysate expressing His-TAT-HA CARP-1 peptides. The reactions were incubated further at 4 °C for 2 h with constant rotation. The peptide-bound sepharose beads were pelleted and washed with 100–200 μL of RIPA buffer with 0.1 M NaCl for 2–4 washes. In some cases, additional washes with 0.05 M NaCl buffer were carried out. After the final wash, the sepharose–protein complexes were spun, and then re-suspended in SDS loading buffer for electrophoresis on 12–15% SDS PAGE, followed by WB with appropriate antibodies.
We next carried out mutagenesis-based studies to map the interacting epitopes of CARP-1 and H2AX proteins. […]

In the case of `COc1cccc2c1C(=O)c1c(O)c3c(c(O)c1C2=O)C[C@@](O)(C(=O)CO)C[C@@H]3O[C@H]1C[C@H](N)[C@H](O)[C@H](C)O1` [Adriamycin, doxorubicin, reference compound], the “interaction of wild-type CARP-1 with γH2AX” value was “robust interaction of wild-type CARP-1 with γH2AX” and the “interaction of CARP-1 (Δ600–650) with γH2AX” value was “abrogated CARP-1 interaction with γH2AX”.

Regarding `O=C1N(Cc2ccccc2Cl)c2ccccc2C12NN=C(c1cccc(Cl)c1)S2` (stereo not shown) [CFM-4.16], the “interaction of wild-type CARP-1 with γH2AX” value is reported as “robust interaction of wild-type CARP-1 with γH2AX” and the “interaction of CARP-1 (Δ600–650) with γH2AX” value was “abrogated CARP-1 interaction with γH2AX”.
